From patent US20110301122A1, “HETEROAROMATIC COMPOUNDS FOR USE AS HIF INHIBITORS” (BAYER SCHERING PHARMA AKTIENGESELLSCHAFT, priority 2008, published 2011) come the findings set out here.

This assay has as its system luciferase reporter under the control of an HIF-responsive sequence in HCT 116 cells. The assay can be described thus: HIF-luciferase assay. In kind it is cell-based. The note with it: Homo sapiens; HCT 116 cells stably transfected with HIF-responsive luciferase reporter; hypoxia chamber (1% O2), 24 h; luminescence (Bright Glo). The protocol:
HCT 116 cells were transfected in a stable manner with a plasmid which contained a luciferase reporter under the control of an HIF-responsive sequence. These cells were sown in microtitre plates [20,000 cells/cavity in RPMI 1640 medium with 10% foetal calf serum (FCS) and 100 μg/ml of hygromycin]. Incubation was carried out overnight under standard conditions (5% CO2, 21% O2, 37° C., moistened). The following morning the cells were incubated with various concentrations of the test substances (0-10 μmol/l) in a hypoxia chamber (1% O2). After 24 h, Bright Glo reagent (Promega, Wisconsin, USA) was added in accordance with the manufacturer'/s instructions, and after 5 min the luminescence was measured. Cells which were incubated under normoxia served as background controls.

Turning to `CN=S(=O)(c1ccc(-c2noc(-c3cc(C)n(Cc4ccc(NC)nc4)n3)n2)cc1)C(F)(F)F` (racemic) [Example 187, N-Methyl-5-{[5-methyl-3-(3-{4-[N-methyl-S-(trifluoromethyl)sulphonimidoyl]phenyl}-1,2,4-oxa-diazol-5-yl)-1H-pyrazol-1-yl]methyl}pyridin-2-amine], the IC50 (usually the point on the concentration scale where inhibition reaches its midpoint) amounted to 0.6 nM. In other words, the sub-nanomolar range.

Consider `CNc1ccc(Cn2nc(-c3nc(-c4ccc(S(=N)(=O)C(F)(F)F)cc4)no3)cc2C)cn1` (racemic) [Example 188, N-Methyl-5-{[5-methyl-3-(3-{4-[S-(trifluoromethyl)sulphonimidoyl]phenyl}-1,2,4-oxadiazol-5-yl)-1H-pyrazol-1-yl]methyl}pyridin-2-amine], for which 1 nM corresponded to half-maximal inhibition (IC50). Then `CNc1ccc(Cn2nc(-c3nc(-c4ccc(OC(F)(F)F)cc4)no3)cc2C)cn1` [Example 24, N-Methyl-5-[(5-methyl-3-{3-[4-(trifluoromethoxy)phenyl]-1,2,4-oxadiazol-5-yl}-1H-pyrazol-1-yl)methyl]pyridin-2-amine], with 1 nM. The figure for `Cc1cc(-c2nc(-c3ccc(OC(F)(F)F)cc3)no2)nn1Cc1ccc(NCCCO)nc1` [Example 25] is 8 nM; for `Cc1cc(-c2nc(-c3ccc(OC(F)(F)F)cc3)no2)nn1Cc1ccc(NCCO)nc1` [Example 29] it is 10 nM; for `Cc1cc(-c2nc(-c3ccc(OC(F)(F)F)cc3)no2)nn1Cc1ccnc(N(CCO)CCO)c1` [Example 33] it is 30 nM. For `Cc1cc(-c2nc(-c3ccc(C(C)(C)C)cc3)no2)cn1Cc1ccc(Cl)nc1` [Example 72, 5-({4-[3-(4-tert-Butylphenyl)-1,2,4-oxadiazol-5-yl]-2-methyl-1H-pyrrol-1-yl}methyl)-2-chloro-pyridine], the half-inhibitory concentration (IC50) was 10 nM. For `Cc1ccc(Cn2cc(-c3nc(-c4ccc(S(=O)(=O)C(F)(F)F)cc4)no3)cc2C)cc1` [Example 79], it took 4 nM to reach half-maximal inhibition (IC50). Then `Cc1ccc(Cn2cc(-c3nc(-c4ccc(C5(F)COC5)cc4)no3)cc2C)cc1` [Example 81], with 10 nM. The compound `Cc1ccc(Cc2cc(-c3nc(-c4ccc(C(C)(C)C)cc4)no3)nn2C)cc1` [Example 94] yielded an IC50 of 20 nM. This IC50 lies about 2-fold higher than the previous one. The figure for `Cc1cc(-c2nc(-c3ccc(OC(F)(F)F)cc3)no2)cn1Cc1ccc(NCCO)nc1` [Example 100, 2-({5-[(2-Methyl-4-{3-[4-(trifluoromethoxy)phenyl]-1,2,4-oxadiazol-5-yl}-1H-pyrrol-1-yl)-methyl]pyridin-2-yl}amino)ethanol] is 9 nM.

For the compound `CNc1ccc(Cn2nc(-c3nc(-c4ccc(C(C)(C)C(F)(F)F)cc4)no3)cc2C)cn1` [Example 121], 0.4 nM corresponded to half-maximal inhibition (IC50). The figure for `CNc1ccc(Cn2nc(-c3nc(-c4ccc(C5(F)CCC5)cc4)no3)cc2C)cn1` [Example 133] is 1.5 nM; for `CNc1ccc(Cn2nc(-c3nc(-c4ccc(C5(OC)CCC5)cc4)no3)cc2C)cn1` [Example 134] it is 2 nM; for `Cc1cc(-c2nc(-c3ccc(OC(F)(F)F)cc3)no2)nn1Cc1ccc(N)nc1` [Example 135, 5-[(5-Methyl-3-{3-[4-(trifluoromethoxy)phenyl]-1,2,4-oxadiazol-5-yl}-1H-pyrazol-1-yl)methyl]-pyridin-2-amine] it is 4 nM. Then `CNc1ccc(Cn2nc(-c3nc(-c4ccc(C5CCOCC5)cc4)no3)cc2C)cn1` [Example 166, N-Methyl-5-[(5-methyl-3-{3-[4-(tetrahydro-2H-pyran-4-yl)phenyl]-1,2,4-oxadiazol-5-yl}-1H-pyrazol-1-yl)methyl]pyridin-2-amine], with 2 nM. `CNc1ccc(Cn2nc(-c3nc(-c4ccc(C(C)(C)C)cc4)no3)cc2C)cn1` [Example 170, 5-({3-[3-(4-tert-Butylphenyl)-1,2,4-oxadiazol-5-yl]-5-methyl-1H-pyrazol-1-yl}methyl)-N-methyl-pyridin-2-amine] returned an IC50 of 0.3 nM. The figure for `CNc1ccc(Cn2nc(-c3nc(-c4ccc(C5(COC)CCC5)cc4)no3)cc2C)cn1` [Example 171, 5-{[3-(3-{4-[1-(Methoxymethyl)cyclobutyl]phenyl}-1,2,4-oxadiazol-5-yl)-5-methyl-1H-pyrazol-1-yl]methyl}-N-methylpyridin-2-amine] is 0.4 nM; for `CNc1ccc(Cn2nc(-c3nc(-c4ccc([Si](C)(C)C)cc4)no3)cc2C)cn1` [Example 178, N-Methyl-5-[(5-methyl-3-{3-[4-(trimethylsilyl)phenyl]-1,2,4-oxadiazol-5-yl}-1H-pyrazol-1-yl)-methyl]pyridin-2-amine] it is 0.6 nM. The figure for `CCNc1ccc(Cn2nc(-c3nc(-c4ccc([Si](C)(C)C)cc4)no3)cc2C)cn1` [Example 180, N-Ethyl-5-[(5-methyl-3-{3-[4-(trimethylsilyl)phenyl]-1,2,4-oxadiazol-5-yl}-1H-pyrazol-1-yl)-methyl]pyridin-2-amine] is 1 nM. Then `CNc1ccc(Cn2nc(-c3nc(-c4ccc(OC(F)(F)F)c(Cl)c4)no3)cc2C)cn1` [Example 181, 5-[(3-{3-[3-Chloro-4-(trifluoromethoxy)phenyl]-1,2,4-oxadiazol-5-yl}-5-methyl-1H-pyrazol-1-yl)-methyl]-N-methylpyridin-2-amine], with 2 nM; and `CNc1ccc(Cn2nc(-c3nc(-c4ccc(OC(F)(F)F)c(F)c4)no3)cc2C)cn1` [Example 182, 5-[(3-{3-[3-Fluoro-4-(trifluoromethoxy)phenyl]-1,2,4-oxadiazol-5-yl}-5-methyl-1H-pyrazol-1-yl)-methyl]-N-methylpyridin-2-amine], with 2 nM. Compound `CNc1ccc(Cn2nc(-c3nc(-c4ccc(C5(C(F)(F)F)CC5)cc4)no3)cc2C)cn1` [Example 183, N-Methyl-5-{[5-methyl-3-(3-{4-[1-(trifluoromethyl)cyclopropyl]phenyl}-1,2,4-oxadiazol-5-yl)-1H-pyrazol-1-yl]methyl}pyridin-2-amine] registered an IC50 of 0.6 nM.

Consider `CNc1ccc(Cn2nc(-c3nc(-c4ccc(CN(C(C)C)C(C)C)cc4)no3)cc2C)cn1` [Example 184, 5-{[3-(3-{4-[(Diisopropylamino)methyl]phenyl}-1,2,4-oxadiazol-5-yl)-5-methyl-1H-pyrazol-1-yl]-methyl}-N-methylpyridin-2-amine], for which the half-inhibitory concentration (IC50) turned out to be 2 nM. `CNc1ccc(Cn2cc(-c3nc(-c4ccc(C(C)(C)C(F)(F)F)cc4)no3)cc2C)cn1` [Example 196, N-Methyl-5-[(2-methyl-4-{3-[4-(1,1,1-trifluoro-2-methylpropan-2-yl)phenyl]-1,2,4-oxadiazol-5-yl}-1H-pyrrol-1-yl)methyl]pyridin-2-amine] returned an IC50 of 0.5 nM. This IC50 is about 4-fold lower than that of the compound before.
